The structures appear in SMILES notation.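 Protocol summary: plate cells (96-well), add compound at 5 concentrations, incubate 48 h, interpolate endpoints linearly. The concentration for 50% growth inhibition is given as GI50. TGI denotes the concentration required for complete inhibition of growth.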

Holding throughout (assay): NCI tumour cell line growth inhibition, 48 h
Test [1] deals with A549 NSCLC.
Test [2] concerns COLO 205 colon.
The subject of test [3] is DU-145 prostate.
Test [4] has as its system M14 melanoma.
The subject of test [5] is MDA-MB-435.
Test [6] deals with NCI-H460 lung.
In test [7] the test system is NCI-H522 lung.
Test [8] relates to SF-268 CNS.
Test [9] deals with SF-539 CNS.
Test [10] deals with U251 CNS.

On to `CN(C[C@@H]1COCCO1)S(=O)(=O)Nc1ccc2ccc3ncc(-c4cnn(C)c4)cc3c(=O)c2c1`, for which the GI50 in test [1] was 6.64 µM; in [2] it was 19300 nM; in test [3], 6.86 µM; in [4] it was 3.89 µM; in test [5] it was 7.13 µM; in [6], 4.26 µM. The GI50 in [7] is 3.71 µM; in test [8], 4.26 µM; in test [9], 1.57 µM; in test [10] it was 2.34 µM. For the same molecule, the TGI in [1], in [2], in [3], in test [4], in [5] and in [6] was above 100 µM throughout. The TGI in [7] is above 31 µM; in test [8], above 100 µM; in test [9] it was 7.91 µM; in test [10] it was above 100 µM.
As to `CCOC(=O)c1cc2c(n1Cc1ccccc1)-c1oncc1CC2`, the GI50 was 4.93 µM in [1]; 3930 nM in test [2]; 11.4 µM in [3]; 3.69 µM in [4]; 0.878 µM in test [5]; 3.08 µM in test [6]. Besides, the GI50 is 1.96 µM in test [7], 6.89 µM in test [8], 4.04 µM in test [9] and 4.73 µM in [10]. The TGI in test [1] was above 100 µM; in test [2], 14.2 µM; in test [3], 44 µM; in [4] it was 24.6 µM; in [5] it was 4.37 µM; in test [6], 11.4 µM. In addition, the TGI came out at 17.5 µM in test [7], 79 µM in test [8], 25.4 µM in [9] and 34 µM in [10].
Take `O=C(c1ccccc1)c1nc2ccc(C(F)(F)F)cc2[n+]([O-])c1C(F)(F)F`: the GI50 in test [1] is 26 µM; in [2], 26800 nM; in test [3], 71.9 µM; in test [4], 34.5 µM; in [5], 43.8 µM; in test [6] it was 23.5 µM. In addition, the GI50 is 24.7 µM in test [7], 39.9 µM in test [8], 51.1 µM in test [9] and 50.3 µM in [10]. Moreover, the TGI in test [1], in [2], in test [3], in [4], in test [5] and in test [6] was above 100 µM each time. Further, the TGI in [7] was 79 µM; in [8], above 100 µM; in [9] it was above 100 µM; in test [10] it was above 100 µM.
Take `CCCCCCCCCCCCOC1C(CNC(=O)C2OC3OC(C)(C)OC3C2NC(=O)CN2CCCCCC2)OC2OC(C)(C)OC21` (stereo unspecified): the GI50 in [1] was 4.46 µM; in test [2], 2490 nM; in test [3], 8.23 µM; in [4], 1.79 µM; in test [5] it was 2.72 µM; in test [6], 5.19 µM. Also, the GI50 in test [7] was 5.07 µM; in test [8], 5.27 µM; in test [9], 3.54 µM; in test [10], 4.91 µM. The TGI in test [1] turned out to be 17.8 µM; in test [2], 6.76 µM; in test [3] it was 20.5 µM; in [4], 3.47 µM; in test [5], 7.9 µM; in test [6], 18.4 µM. For the same molecule, the TGI came to 17.8 µM in test [7], 20.8 µM in test [8], 8.58 µM in test [9] and 15.9 µM in [10].
On to `COc1ccc(Cn2cc3c(c2-c2cc(OC)c(OC)c(OC)c2)CCc2cnoc2-3)cc1[N+](=O)[O-]`, for which the GI50 is 1 µM in test [1]; 730 nM in test [2]; 1.91 µM in test [3]; 0.662 µM in test [4]; 0.219 µM in [5]; 0.721 µM in test [6]. Also, the GI50 in [7] was 0.294 µM; in test [8], 3.79 µM; in [9] it was 1.12 µM; in [10], 1.2 µM. Moreover, the TGI was above 100 µM in test [1]; 3.28 µM in [2]; above 21.3 µM in [3]; above 20.4 µM in [4]; 0.612 µM in test [5]; above 28.8 µM in test [6]. For the same molecule, the TGI in test [7] is 1.64 µM; in [8], above 100 µM; in test [9], 13.8 µM; in [10], above 100 µM.
In the case of `COC1=Nc2ccccc2S(=O)(=O)C=C1`, the TGI amounted to 36.9 µM in test [1]; 4.01 µM in [2]; 31.4 µM in test [3]; 21.4 µM in test [4]; 24.8 µM in test [5]; 37.3 µM in test [6]. Moreover, the TGI in test [7] stood at 2.81 µM; in test [8] it was 48.6 µM; in [9], 33.3 µM; in test [10] it was 24.4 µM. For the same molecule, the GI50 in [2] is 695 nM.
In the case of `C/C(Cc1ccc(Cl)cc1)=C(/c1ccc(Cl)cc1)c1ccc(OCCN(C)C)cc1`, the GI50 is 4.52 µM in [1]; 1000 nM in test [2]; 4.74 µM in test [3]; 5.19 µM in [4]; 4.52 µM in [5]; 1.22 µM in test [6]. The GI50 in test [7] is 5.31 µM; in [8], 5.01 µM; in test [9], 4.77 µM; in test [10], 3.72 µM. Besides, the TGI in test [1] stood at 10.3 µM; in test [2], 4.53 µM; in [3] it was 9.44 µM; in [4] it was 10.8 µM; in [5] it was 8.81 µM; in test [6], 4.49 µM. Further, the TGI was 11.4 µM in test [7], 10.1 µM in [8], 9.22 µM in test [9] and 8.6 µM in test [10].
Consider `CCCCCC/C=C\CCCCCCCCCC1=CC(=O)C=C(OC)C1=O`, for which the TGI worked out at 16.3 µM in test [1]; 3.24 µM in test [2]; 38 µM in test [3]; 16.2 µM in test [4]; 13.8 µM in test [5]; 11.1 µM in test [6]. Also, the TGI stood at 4.58 µM in test [7], 19.3 µM in test [8], 6.74 µM in test [9] and 13.6 µM in test [10].

The values above are taken from PubChem BioAssay (NCI).
